Source: patent publication US20240124466A1, “COMPOUNDS AND USE THEREOF FOR TREATMENT OF NEURODEGENERATIVE, DEGENERATIVE AND METABOLIC DISORDERS” (VOVA IDA THERAPEUTICS, INC., priority 2020, published 2024)
Where “and” joins values, the source holds several entries; their conditions need not be identical. Identical values can stand only once. Like-named read-outs stand apart in the source and are kept apart here.

How the values were obtained:
[1] = tested on: PK1 neuroblastoma cells exposed to TPrP; settings: for EC50: read-out: TPrP EC50; for toxic at cc (concentration above which compound is toxic): mouse
[2] = tested on: PK1 neuroblastoma cells exposed to TPrP; experiment: cells; settings: Neuroblastoma cell, 96 h, read-out: TPrP EC50

Structure (SMILES) | EC50 [2] | also measured
Cc1ccc(-c2nnc3c4ccccc4c(C)nn23)cc1S(=O)(=O)N1CCOCC1 [SR-843] | 15 nM | EC50 [1]: 20 nM and 25 nM and 30 nM
Cc1ccc(-c2nnc(-c3ccc([N+](=O)[O-])cc3)[nH]2)cc1S(=O)(=O)N1CCOCC1 [SR-29045, 4-((2-Methyl-5-(5-(4-nitrophenyl)-4H-1,2,4-triazol-3-yl)phenyl)sulfonyl) morpholine] | 5 nM | toxic at cc (concentration above which compound is toxic) [1]: 5 nM (but toxic at cc >5 nM)
Cc1ccc(-c2nnc(-c3ccccc3)[nH]2)cc1S(=O)(=O)N1CCOCC1 [SR-25604, 4-((2-Methyl-5-(5-phenyl-4H-1,2,4-triazol-3-yl)phenyl)sulfonyl)morpholine] | 35 nM | EC50 [1]: 30 nM and 40 nM
Cc1ccc(-c2nnc(-c3ccc(N(C)C)cc3)[nH]2)cc1S(=O)(=O)N1CCOCC1 [SR-28124, N,N-dimethyl-4-(5-(4-methyl-3-(morpholinosulfonyl)phenyl)-4H-1,2,4-triazol-3-yl)aniline] | 12 nM | toxic at cc (concentration above which compound is toxic) [1]: 12 nM (but toxic at cc >135 nM)
Cc1ccc(-c2ccnc(-c3ccncc3)c2)cc1S(=O)(=O)N1CCOCC1 [SR-29204, 4-((5-([2,4′-Bipyridin]-4-yl)-2-methylphenyl)sulfonyl)morpholine] | < 5 nM | protection at 5 nM [1]: <5 nM (100% protection at 5 nM)
Cc1ccc(-c2ccnc(Cl)c2)cc1S(=O)(=O)N1CCN(C(=O)c2ccco2)CC1 [SR-35516, (4-((5-(2-Chloropyridin-4-yl)-2-methylphenyl)sulfonyl)piperazin-1-yl)(furan-2-yl)methanone] | 270 nM | –
N#Cc1ccc(-c2nnc(-c3ccccc3)[nH]2)cc1S(=O)(=O)N1CCOCC1 [SR-27504, 2-(Morpholinosulfonyl)-4-(5-phenyl-4H-1,2,4-triazol-3-yl)benzonitrile] | > 320 nM | –
Cc1ccc(-c2ccn(-c3ccccc3)c2)cc1S(=O)(=O)N1CCOCC1 [SR-29084, 4-((2-Methyl-5-(1-phenyl-1H-pyrrol-3-yl)phenyl)sulfonyl)morpholine] | 600 nM | –
Cc1ccc(-c2ccnc(Cl)c2)cc1S(=O)(=O)N1CCN(CCO)CC1 [SR-34793, 2-(4-((5-(2-Chloropyridin-4-yl)-2-methylphenyl)sulfonyl)piperazin-1-yl)ethan-1-ol] | 40 nM | –
Cc1ccc(-c2nnc(-c3ccccc3)[nH]2)cc1S(=O)(=O)N1CCC(O)(Cc2ccccc2)CC1 [SR-33024, 4-Benzyl-1-((2-methyl-5-(5-phenyl-4H-1,2,4-triazol-3-yl)phenyl)sulfonyl) piperidin-4-ol] | > 1500 nM | –
Cc1ccc(-c2n[nH]c3ccccc23)cc1S(=O)(=O)N1CCOCC1 [SR-27564, 4-((5-(1H-Indazol-3-yl)-2-methylphenyl)sulfonyl)morpholine] | 135 nM | –
Cc1ccc(-c2nnc(-c3ccc(F)cc3)[nH]2)cc1S(=O)(=O)N1CCOCC1 [SR-27964, 4-((5-(5-(4-Fluorophenyl)-4H-1,2,4-triazol-3-yl)-2-methylphenyl)sulfonyl) morpholine] | 40 nM | –
CC(=O)N(C)CCN(C)c1cc(-c2ccc(C)c(S(=O)(=O)N3CCOCC3)c2)ccn1 [SR-25124, N-methyl-N-(2-(methyl(4-(4-methyl-3-(morpholinosulfonyl)phenyl)pyridin-2-yl)amino)ethyl)acetamide] | 240 nM | –
O=S(=O)(c1ccc(-c2nnc(-c3ccccc3)[nH]2)cc1Cl)N1CCOCC1 [SR-26324, 4-((2-Chloro-4-(5-phenyl-4H-1,2,4-triazol-3-yl)phenyl)sulfonyl)morpholine] | > 320 nM | –
Cc1ccc(-c2nnc(-c3ccccc3)[nH]2)cc1S(=O)(=O)N1CCC(O)(c2cccnc2)CC1 [SR-32924, 1-((2-Methyl-5-(5-phenyl-4H-1,2,4-triazol-3-yl)phenyl)sulfonyl)-4-(pyridin-3-yl)piperidin-4-ol] | > 1500 nM | –
Cc1ccc(-c2ccnc(N3CCOCC3)c2)cc1S(=O)(=O)N1CCOCC1 [SR-29224, 4-(4-(4-Methyl-3-(morpholinosulfonyl)phenyl)pyridin-2-yl)morpholine] | 6 nM | –
CC(=O)NC1CCN(CCn2cc(-c3ccc(C)c(S(=O)(=O)N4CCOCC4)c3)cn2)CC1 [SR-25864, N-(1-(2-(4-(4-methyl-3-(morpholinosulfonyl)phenyl)-1H-pyrazol-1-yl)ethyl)piperidin-4-yl)acetamide] | 120 nM | –
Cc1ccc(-c2ncc(-c3ccccc3)[nH]2)cc1S(=O)(=O)N1CCOCC1 [SR-28804, 4-((2-Methyl-5-(5-phenyl-1H-imidazol-2-yl)phenyl)sulfonyl)morpholine] | 400 nM | –
Cc1ccc(-c2ccncc2)cc1S(=O)(=O)N1CCOCC1 [SR-24583] | 100 nM | –
Cc1ccc(-c2ccnc(Cl)c2)cc1S(=O)(=O)N1CCN(CC(F)(F)F)CC1 [SR-35324, 1-((5-(2-Chloropyridin-4-yl)-2-methylphenyl)sulfonyl)-4-(2,2,2-trifluoroethyl) piperazine] | > 1500 nM | –
